Test results reported in patent US10578612B2, “Diagnostic assay” (priority 2010, dated 2020).
Several values for one entry are separate records, joined by “and”; a condition that tells them apart may be missing. Equal entries are not always repeated. Bridge positions count the residues as written; N and C are the ends. Square brackets hold non-standard residues; d marks the D form. Peptide text beside a SMILES is read from it. * marks the point of attachment. Octanoyl(6-Me) = CCC(C)CCCCC(=O)*; Dab = NCC[CH](N)C(=O)O

Key:
Format in all cases: cell-based, human
[1] = tested on: IFN-γ production in blood (CMV antigen); experiment: Effect of polymyxin B on IFN-γ production in blood in QuantiFERON-CMV tubes (Example 2)
Method: The effect of polymyxin B on IFN-γ production was assessed. Blood from 8 healthy donors was added to QuantiFERON-CMV blood collection tubes (1.0 mL per tube). One tube for each donor had 1.0 μg/mL of polymyxin B added, whilst the second tube served as a control. Blood was incubated at 37° C. for 20 hours before the tubes were centrifuged and the resultant concentration of IFN-γ determined by ELISA.

[2] = tested on: non-specific IFN-γ production in blood containing lipopolysaccharides (LPS); experiment: Effect of polymyxin B on non-specific IFN-γ production in blood containing LPS (Example 3)
Method: In this Example, blood from 8 healthy donors was collected in Li-Heparin tubes. Aliquots of 1.0 mL were prepared in 13/75 mm plain gel tubes. An endotoxin, lipopolysaccharides (LPS), was added to each tube of blood at a concentration of 1 μg/mL. Various concentrations of polymyxin B were added to each of the tubes. The blood was then incubated at 37° C. for 20 hours before the tubes were centrifuged and the IFN-γ concentration of the plasma determined by ELISA.

[3] = tested on: non-specific IFN-γ production in blood from BD heparin tube (endotoxin contamination); experiment: Polymyxin B in endotoxin-contaminated BD heparin tubes, IFN-γ assay (Example 4)
Method: Blood was taken from four healthy donors collected in Li-Heparin tubes. […] Tubes were mixed to resolublize the heparin and to ensure blood contact with tube plastic.
Aliquots of 1.0 mL from each heparin tube type were then transferred to 13/75 mm plain gel tubes. The blood was then incubated at 37° C. for 20 hours before the tubes were centrifuged and the IFN-γ concentration of the plasma determined by ELISA.

[4] = tested on: immune response to lipopolysaccharide (LPS), IFN-γ in blood; experiment: Effect of sushi peptide on immune response of blood to LPS (Example 6, FIGS. 1-2); conditions: sushi peptide 0-10 μg/ml, antigens CMV and tetanus toxoid, FIGS. 2a-2c
Method: Heparinized blood samples were collected into Li-Hep Vacuette (registered trade mark) tubes (Greiner Bio-one, Germany).
Aliquots of 1 ml of the blood samples were incubated with various concentrations of Lipopolysaccharide (Sigma, Australia) and a sushi peptide ([…]) [SEQ ID NO:1] (American Peptide Company, California) in nil blood collection tubes (QuantiFERON [registered trade mark]-TB Gold In-Tube, Cellestis Ltd, Australia) either as supplied or spiked with tetanus toxoid (1001 fu/ml), or in CMV tubes (QuantiFERON-CMV, Cellestis Ltd, Australia).
Stimulated blood samples were incubated for 16-24 hr at 37° C., after which the tubes were centrifuged and the plasma harvested. The amount of IFN-γ present in each plasma sample was then quantified using the QuantiFERON (registered trade mark)-TB Gold ELISA (Cellestis Limited, Australia) as per the manufacturer's instructions.
ELISA optical density values for IFN-γ standards run on each ELISA plate were used to construct a standard curve from which the amount of IFN-γ present in each of the test plasma samples was converted to IU/mL values.

[5] = tested on: IFN-γ production in stimulated whole blood

Compound: CCC(C)CCCCC(=O)NC(CCN)C(=O)NC(C(=O)NC(CCN)C(=O)NC1CCNC(=O)C(C(C)O)NC(=O)C(CCN)NC(=O)C(CCN)NC(=O)C(CC(C)C)NC(=O)C(Cc2ccccc2)NC(=O)C(CCN)NC1=O)C(C)O (stereo not drawn) [polymyxin B, N-[4-amino-1-[[1-[[4-amino-1-oxo-1-[[6,9,18-tris(2-aminoethyl)-15-benzyl-3-(1-hydroxyethyl)-12-(2-methylpropyl)-2,5,8,11,14,17,20-heptaoxo-1,4,7,10,13,16,19-heptazacyclotricos-21-yl]amino]butan-2-yl]amino]-3-hydroxy-1-oxobutan-2-yl]amino]-1-oxobutan-2-yl]-6-methyloctanamide] ({Octanoyl(6-Me)}-[Dab]T[Dab][Dab][Dab]FL[Dab][Dab]T; lactam 4-C; configuration not given here)
- effect on the production of IFN-γ ([1]; 1 μg/mL polymyxin B, CMV antigen): does not adversely affect the production of IFN-γ
- IFN-γ concentration, CMV + PMB 1.0 μg/mL ([1]; QuantiFERON-CMV tube, 1.0 μg/mL polymyxin B, 37° C. 20 hours, ELISA, one line per subject): 8.35 IU/mL and 0.04 IU/mL (2×) and 0.08 IU/mL and 0.51 IU/mL and 1.53 IU/mL and 24.28 IU/mL and 0.05 IU/mL and 2.3 IU/mL and 0.55 IU/mL
- IFN-γ concentration, 1 μg/mL LPS, polymyxin 0.1 ug/mL ([2]; blood + 1 μg/mL LPS, polymyxin B 0.1 ug/mL, 37° C. 20 hours, one line per subject): 0.67 IU/mL and 0.44 IU/mL and 9.28 IU/mL and 2.87 IU/mL and 0.32 IU/mL and 2.00 IU/mL and 0.79 IU/mL and 0.41 IU/mL
- IFN-γ concentration, 1 μg/mL LPS, polymyxin 1 ug/mL ([2]; blood + 1 μg/mL LPS, polymyxin B 1 ug/mL, 37° C. 20 hours, one line per subject): 0.41 IU/mL and 0.22 IU/mL and 3.31 IU/mL and 2.57 IU/mL and 0.21 IU/mL and 1.17 IU/mL and 0.50 IU/mL and 0.14 IU/mL
- IFN-γ concentration, 1 μg/mL LPS, polymyxin 10 ug/mL ([2]; blood + 1 μg/mL LPS, polymyxin B 10 ug/mL, 37° C. 20 hours, one line per subject): 0.25 IU/mL and 0.11 IU/mL (2×) and 1.96 IU/mL and 1.41 IU/mL and 0.36 IU/mL and 0.32 IU/mL and 0.12 IU/mL
- IFN-γ concentration, 1 μg/mL LPS, polymyxin 100 ug/mL ([2]; blood + 1 μg/mL LPS, polymyxin B 100 ug/mL, 37° C. 20 hours, one line per subject): 0.02 IU/mL (3×) and 0.05 IU/mL (2×) and 0.04 IU/mL and 0.18 IU/mL and 0.06 IU/mL
- effect on non-specific IFN-γ production ([2]; samples containing endotoxin (LPS 1 μg/mL)): caused a reduction in non-specific IFN-γ production
- effect on non-specific IFN-γ production in BD heparin tubes ([3]; 100 ug/mL polymyxin B, BD heparin tubes known to contain endotoxin): significantly reduced
- IFN-gamma, BD Heparin Tube + 100 μg/mL Polymyxin B ([3]; blood from BD heparin tube (endotoxin contaminated) with 100 μg/mL polymyxin B, 37° C. 20 hours, one line per subject): 0.51 IU/mL and 0.11 IU/mL (2×) and 0.24 IU/mL

Compound: HAEHKVKIGVEQKYGQFPQGTEVTYTCSGNYFLM (Sushi peptide)
- effect on immune response to LPS [4]: inhibition of an immune response to lipopolysaccharide (LPS)

Compound: polyinosinic acid-polycytidylic acid [PolyI:C]
- IFN-γ response to poly(I:C) alone [5]: relatively small
- effect on IFN-γ production with antigen [5]: increases the IFN-γ production
